From patent US20120083522A1, “MODULATION OF INFLAMMATORY RESPONSES BY FACTOR XI” (Isis Pharmaceuitcals, inc., priority 2009, published 2012)
In the oligonucleotide strings, read from the 5' end, every base follows the letter of its sugar. An asterisk marks phosphorothioate; unmarked linkages are phosphodiester. Other units and linkages are bracketed, terminal groups are in braces. A string of capitals states the bases alone. e = 2'-O-(2-methoxyethyl) (MOE); [5mC] = 5-methylcytosine; d = 2'-deoxy (DNA)

Tests used:
[1] = test system: collagen-induced arthritis (CIA) model; assay: Arthritis Study A: collagen-induced arthritis (Example 11); format: in vivo, DBA/1J mice; settings: DBA/1J mice, 20 mg/kg s.c. twice a week for 12 weeks
Description: The effect of inhibition of Factor XI and its role in fibrin accumulation in the joints leading to joint inflammation and rheumatoid arthritis was evaluated in a murine collagen-induced arthritis (CIA) model. […] Arthritis induced in mice administered collagen can be visually assessed and clinically scored as described by Marty et al. (J Clin Invest, 107:631-640, 2001) where 1 point is given for each swollen digit except the thumb (maximum, 4), 1 point is given for the tarsal or carpal joint, and 1 point is given for the metatarsal or metacarpal joint with a maximum score of […]. Each paw was graded individually, the cumulative clinical arthritic score per mouse reaching a maximum of 22 points
In a group of 15 DBA/1J mice, 20 mg/kg of ISIS 404071 was injected subcutaneously twice a week for 12 weeks. One control group of 15 mice was injected with 20 mg/kg of ISIS 403102 twice a week for 12 weeks. Two control groups of 15 mice each were injected with PBS twice a week for 12 weeks. Two weeks after the first oligonucleotide dose, type II bovine collagen (Chondrex Inc, Redmond, Wash.) was mixed with complete Freund's adjuvant, homogenized on ice and the emulsion, containing 100 μg of collagen, was injected subcutaneously at the base of the tail in the Factor XI group, the Factor VII group and one of the PBS control groups. A booster injection containing 100 μg collagen type II in incomplete Freund's adjuvant was injected subcutaneously at the base of the tail at a different injection site on day 21 after the first collagen injection in these groups.
Starting 35 days from the first collagen injection, mice in all groups were examined daily for the visual appearance of arthritis, such as swelling and stiffness, in peripheral joints. The results are presented in Table 20 (expressed as a percentage of the PBS control) and in FIGS. 1-3.
‘Incidence of CIA’ refers to the percentage of mice in each group that had CIA at day 40. The ‘percentage of paws affected’ refers to the percentage of paws out of a total of 60 paws in each group of mice that were affected with arthritis. ‘Average number of affected paws’ refers to the number of affected paws in mice that were diagnosed to have arthritis. The ‘clinical severity of CIA’ was scored as described by Marty et al. (J Clin Invest, 107:631-640, 2001) and as follows: 1 point for each swollen digit except the thumb (maximum, 4), 1 point for the tarsal or carpal joint, and 1 point for the metatarsal or metacarpal joint with a maximum score of 6 for a hindpaw and 5 for a forepaw. Each paw was graded individually, the cumulative clinical arthritic score per mouse reaching a maximum of 22 points.

[2] = test system: DSS-induced colitis model; assay: Colitis Study A: DSS-induced colitis, body weight and colon length (Example 12); format: in vivo, Swiss Webb mice
Description: The effect of antisense oligonucleotide inhibition of Factor XI and its role in ameliorating colitis was evaluated in a dextran sulfate sodium (DSS)-induced colitis model. Administration of DSS to animals is a well known method to induce […] and has been previously described by Okayasu et al. (Gastroenterology, 1990, 98:694-702), Cooper et al. (Lab Invest, 1993, 69:238-249) and Dieleman et al. (Clin Exp Immunol, 1998, 114:385-391).
In groups of 8 Swiss Webb mice, 20 mg/kg of ISIS 404071 or ISIS 403102 were injected subcutaneously twice a week for 3 weeks. Two control groups of 8 mice each were injected with PBS twice a week for 3 weeks. After the oligonucleotide treatments, 4% DSS in water was administered ad libitum for 6 days to the experimental groups and one PBS control group.
Mice in all groups were weighed at day 0. Mice were sacrificed at the end of the study on day 7 after DSS was administered and their body weights and colon lengths were measured. Results are presented in Table 24 (expressed as a percentage of the PBS control) and FIG. 7.
Colon length was assessed in the DSS-induced colitis mice.

[3] = test system: DSS-induced colitis model; assay: Colitis Study A: colon tissue histopathology; settings: FIG. 8, listed as Factor VII ASO
[4] = test system: thrombin-antithrombin (TAT) complexes; assay: Colitis Study E: TAT levels; format: in vivo, Swiss Webb mice; settings: Colitis Study E, day 7
Description: (§1) Two groups 8 Swiss Webb mice were dosed with 40 mg/kg of ISIS 404071 injected subcutaneously twice a week for 3 weeks. Two control groups of 8 Swiss Webb mice were dosed with PBS subcutaneously twice a week for 3 weeks. Both the ASO treated groups and one of the control groups were then given 4% DSS in distilled water for 7 days ad libitum. One of the ASO and DSS treated groups was also given intravenous injections of 20 μg of recombinant human Factor XI protein (Haematologic Technologies Inc.) for 7 consecutive days, starting the day before DSS treatment. Mice were sacrificed at the end of the study on day 7 after DSS was administered.
Mice with dextran sodium sulfate (DSS)-induced colitis have elevated level of thrombin-antithrombin (TAT) complexes in blood (Anthoni, C. et al., J. Exp. Med. 204: 1595-1601, 2007) and is also observed in patients with ulcerative colitis (Kume, K. et al., Intern Med. 2007. 46: 1323-9). The effect of antisense inhibition of Factor XI on TAT levels in the […] was evaluated (Siemens Healthcare Diagnostics, Deerfield, Ill.) at the end of the study on day 7 after DSS was administered and the results are presented in Table 38.

bradykinin = assay: Colitis Study E: bradykinin levels in colon; format: in vivo, Swiss Webb mice; settings: Colitis Study E, day 7
Description: as §1
The effect of antisense inhibition of Factor XI on kinin levels in the colon was evaluated (Phoenix Pharmaceuticals, Burlingame, Calif.) at the end of the study on day 7 after DSS was administered and the results are presented in Table 40.

[5] = test system: IFN-γ, IL-10, IL-12, IL-1β, IL-2, IL-4, IL-5, TNF-α, KC; assay: Colitis Study E: cytokine levels in colon (multiplex ELISA); format: in vivo, Swiss Webb mice; settings: Colitis Study E, day 7
Description: as §1
The cytokine levels of IFN-γ, IL-10, IL-12, IL-1β, IL-2, IL-4, IL-5, TNF-α, and keratinocyte chemoattractant (KC) were measured in the colon of the mice groups at the end of the study on day 7 after DSS was administered. Colons were homogenized on ice in PBS supplemented with protease inhibitors (Sigma, St. Louis, Mo.) and extracted with rotation at 4° C. for 1 hour. After removal of insoluble material by centrifugation, colon homogenates were used for the cytokine analysis by multiplex ELISA (Mouse TH1/TH2 9-Plex Ultra-Sensitive Kit, Meso Scale Discovery, Gaithersburg, Md.) according to the manufacture's protocol. Cytokine levels in colon extracts were normalized to the protein concentration measured by protein assay kit (BioRad, Hercules, Calif.). The levels of pro-inflammatory cytokines, IFN-γ, IL-1β, IL-10, IL-2, IL-5, TNF-α, and KC were elevated by DSS administration, and were decreased by treatment with ISIS 404071.

[6] = test system: soluble CD40 ligand (CD40L); assay: Colitis Study E: CD40L plasma levels; format: in vivo, Swiss Webb mice; settings: Colitis Study E, day 7
Description: as §1
Plasma levels of soluble CD40 ligand (CD40L) are known to be elevated in cases of inflammatory bowel disease (Ludwiczek, O. et al., Int. J. Colorectal Disease. 2003. 18: 142-147) and may be considered a marker of intestinal inflammation. The effect of antisense inhibition of Factor XI on CD40L levels in the plasma was evaluated at the end of the study on day 7 after DSS was administered and the results are presented in Table 39. CD40L levels in plasma were measured by commercially available ELISA kits (Bender MedSystems, Vienna, Austria, eBioscience, San Diego, Calif.) according to the manufacture's protocols.

[7] = test system: DSS-induced colitis model; assay: Colitis Study E: weight change, colon length, stool analysis; format: in vivo, Swiss Webb mice; settings: Colitis Study E, day 7
Description: as §1
Mice in all groups were weighed at day 0 and at the end of the study. […] Mice were sacrificed at the end of the study on day 7 after DSS was administered and their colon lengths were measured.

[8] = DSS-induced colitis, day 7, 20 mg/kg s.c. twice a week for 3 weeks, expressed as a percentage of the PBS control

Substance | Average no. of paws affected ([1]; in mice diagnosed with arthritis) | % of paws affected ([1]; out of 60 paws per group) | % of CIA ([1]; percentage of mice in group with CIA at day 40) | Clinical severity of CIA ([1]; score of Marty et al., maximum 22 points) | body weight (in words) ([2]; Colitis Study A, FIG. 7A/7B) | colon length (in words) ([2]; Colitis Study A, FIG. 7C) | Body weight change [2, 8] | Colon length change [2, 8] | colon histology, lesions (in words) [3] | TAT levels (in words) [4] | bradykinin levels (in words) (bradykinin) | pro-inflammatory cytokine levels in colon: IFN-γ, IL-1β, IL-10, IL-2, IL-5, TNF-α, KC (in words) [5] | CD40L levels in plasma (in words) [6] | colon length (in words) [7] | stool softness/diarrhea (in words) [7]
CCATAGAACAGCTTCACAGG (e[5mC]*e[5mC]*eA*eT*eA*dG*dA*dA*d[5mC]*dA*dG*d[5mC]*dT*dT*d[5mC]*eA*e[5mC]*eA*eG*eG) [ISIS 403102, reference compound] | 1 | 19% | 54% | 4 | had a decrease in body weight | had a decrease in colon length | −7% | −34% | shows the same histology as the DSS control | – | – | – | – | – | –
recombinant Factor XI protein: recombinant human Factor XI protein (Haematologic Technologies Inc.) | – | – | – | – | – | – | – | – | – | near restoration of TAT levels to that of the DSS treated mice | restoration of bradykinin levels to that of the DSS treated mice | restoration of cytokine levels to that of the DSS treated mice | restoration of CD40L levels to that of the DSS treated mice | increase in colon length due to treatment with ISIS 404071 is eliminated | amelioration of diarrhea in mice treated with ISIS 404071 is eliminated
